IC50 data for 26 compounds are collected here from patent publication US20240083900A1, “PYRAZOLO[1,5-A]PYRAZINE DERIVATIVES AS BTK INHIBITORS” (BIOGEN MA INC., priority 2020, published 2024).

pIC50: −log10 of the molar value. Read-outs that look alike come from different tables or passages of the source. Bounds are passed on as bounds.

In test [1] the target is BTK (Homo sapiens (Human), UniProt Q06187). Kind of test: In Vitro BTK Kinase Assay: Btk-PolyGAT-LS Assay. The conditions noted are these: BTK enzyme 0.25 nM, ATP 10 μM, polyGAT 100 nM, 30 minutes incubation, TRF readout; for pIC50: read-out: IC50. Format: biochemical. Put shortly:
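Human BTK activity was measured with final 10 μM ATP and 100 nM polyGAT substrate in pH 7.5 Tris buffer with 10 mM MgCl2, DTT, Triton X-100 and casein.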

For test [2], the system named is CD69 expression on CD19+ B cells in human whole blood stimulated with anti-human IgD. Nature of the test: In Vitro whole blood CD69 Assay. Format: cell-based. The conditions noted are these: human heparinized whole blood, anti-human IgD stimulation overnight, percentage of CD19+ B cells expressing CD69, flow cytometry.
Setting [3] is: Homo sapiens, B-cell, read-out: IC50.

Chain of BTK (Q06187 whole entry): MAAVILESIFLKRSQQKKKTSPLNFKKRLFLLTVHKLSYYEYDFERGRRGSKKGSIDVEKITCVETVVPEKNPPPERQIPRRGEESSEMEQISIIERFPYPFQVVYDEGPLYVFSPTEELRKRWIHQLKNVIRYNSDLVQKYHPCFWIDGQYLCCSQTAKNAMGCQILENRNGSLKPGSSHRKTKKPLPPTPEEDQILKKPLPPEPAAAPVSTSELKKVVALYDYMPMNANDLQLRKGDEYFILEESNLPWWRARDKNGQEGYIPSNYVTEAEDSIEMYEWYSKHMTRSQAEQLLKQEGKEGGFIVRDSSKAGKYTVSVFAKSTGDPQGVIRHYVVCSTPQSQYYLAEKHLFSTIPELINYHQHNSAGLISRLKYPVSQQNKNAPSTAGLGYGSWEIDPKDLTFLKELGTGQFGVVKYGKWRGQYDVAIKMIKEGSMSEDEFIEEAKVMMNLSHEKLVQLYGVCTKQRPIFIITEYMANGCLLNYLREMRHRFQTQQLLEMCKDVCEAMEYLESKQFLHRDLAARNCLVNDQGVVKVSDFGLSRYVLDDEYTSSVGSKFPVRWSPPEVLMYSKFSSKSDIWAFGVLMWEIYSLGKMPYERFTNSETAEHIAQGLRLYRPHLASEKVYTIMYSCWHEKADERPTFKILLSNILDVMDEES

For orientation: pIC50 means the IC50 on a negative log10 scale, so that one unit is a factor of ten. For the compound `C=CC(=O)N1CCC[C@@H](Oc2nc(-c3cnn(C)c3)cn3ncc(F)c23)CC1` [Example 61, 1-[(4R)-4-[3-fluoro-6-(1-methylpyrazol-4-yl)pyrazolo[1,5-a]pyrazin-4-yl]oxyazepan-1-yl]prop-2-en-1-one], the pIC50 in test [1] is above 9.00; in test [2] (setting [3]), above 6.00.
On the same counts, the results for `C=CC(=O)N1CCC[C@](F)(COc2nc(-c3cnn(C)c3)cn3nccc23)C1` [Example 187, (R)-1-(3-fluoro-3-(((6-(1-methyl-1H-pyrazol-4-yl)pyrazolo[1,5-a]pyrazin-4-yl)oxy)methyl)piperidin-1-yl)prop-2-en-1-one] are above 9.00 and above 6.00.
On the same counts, the results for `C=CC(=O)N(C)[C@H]1C[C@@](C)(Oc2nc(-c3cnn(C)c3)cn3ncc(C4CC4)c23)C1` [Example 229, N-((1s,3s)-3-((3-cyclopropyl-6-(1-methyl-1H-pyrazol-4-yl)pyrazolo[1,5-a]pyrazin-4-yl)oxy)-3-methylcyclobutyl)-N-methylacrylamide] are above 9.00 and above 6.00.
`C=CC(=O)N1C[C@H]2C[C@@H](Oc3nc(-c4cnn(C)c4)cn4ncc(C)c34)[C@H]2C1` [Example 197, 1-((1S,5R,6R)-6-((3-methyl-6-(1-methyl-1H-pyrazol-4-yl)pyrazolo[1,5-a]pyrazin-4-yl)oxy)-3-azabicyclo[3.2.0]heptan-3-yl)prop-2-en-1-one]: the negative-log IC50 (pIC50) in test [1] is above 9.00; in test [2] (setting [3]), above 6.00.
In the same order, the values of `C=CC(=O)NC12CCCC(Oc3nc(-c4cnn(C)c4)cn4nccc34)(C1)C2` [Example 224, N-(5-((6-(1-methyl-1H-pyrazol-4-yl)pyrazolo[1,5-a]pyrazin-4-yl)oxy)bicyclo[3.1.1]heptan-1-yl)acrylamide] are above 9.00 and 5.00 to 6.00.
On to `CN[C@H]1C[C@@](C)(Oc2nc(-c3cnn(C)c3)cn3nccc23)C1(C)C` (racemic) [Example 139, racemic (1S,3R)—N,2,2,3-tetramethyl-3-((6-(1-methyl-1H-pyrazol-4-yl)pyrazolo[1,5-a]pyrazin-4-yl)oxy)cyclobutan-1-amine], for which the negative-log IC50 (pIC50) in test [1] is above 9.00; in test [2] (read-out: IC50), above 6.00.
Turning to `C=CC(=O)N1[C@@H]2CC[C@H]1[C@@H](Oc1nc(-c3cnn(C)c3)cn3nccc13)C2` [Example 235, 1-((1S,2S,4R)-2-((6-(1-methyl-1H-pyrazol-4-yl)pyrazolo[1,5-a]pyrazin-4-yl)oxy)-7-azabicyclo[2.2.1]heptan-7-yl)prop-2-en-1-one], the pIC50 in test [1] is above 9.00; in test [2] (setting [3]), above 6.00.
On the same counts, the results for `C=CC(=O)N1CCO[C@](C)(COc2nc(-c3cnn(C)c3)cn3nccc23)C1` (single isomer, unassigned) [Example 117, (S) or (R)-1-(2-methyl-2-(((6-(1-methyl-1H-pyrazol-4-yl)pyrazolo[1,5-a]pyrazin-4-yl)oxy)methyl)morpholino)prop-2-en-1-one] are 8.00 to 9.00 and above 6.00.
On the same counts, the results for `C=CC(=O)N[C@H]1C[C@@](C)(Oc2nc(-c3cnn(C)c3)cn3nccc23)C1` [Example 228, N-((1s,3s)-3-methyl-3-((6-(1-methyl-1H-pyrazol-4-yl)pyrazolo[1,5-a]pyrazin-4-yl)oxy)cyclobutyl)acrylamide] are above 9.00 and above 6.00.
As for `C=CC(=O)N(C)[C@H]1C[C@@H](Oc2nc(-c3cnn(C)c3)cn3ncc(F)c23)C1` [Example 63, N-((cis)-3-((3-fluoro-6-(1-methyl-1H-pyrazol-4-yl)pyrazolo[1,5-a]pyrazin-4-yl)oxy)cyclobutyl)-N-methylacrylamide], the pIC50 is above 9.00 in test [1] and below 5.00 in test [2] (setting [3]).
As a reminder, the IC50 is the concentration that gives 50% inhibition. Read a low IC50 as greater potency in that assay. With `C=CC(=O)N(C)[C@H]1C[C@@](C)(Oc2nc(-c3cnn(C)c3)cn3nccc23)C1(C)C` (single isomer, unassigned) [Example 141], in test [1] (IC50 (nM)), the IC50 is 1 to 10 nM. The negative logarithm of the IC50 (pIC50) in test [2] is 5.00 to 6.00.
Regarding `C=CC(=O)N1CC[C@]2(C1)C[C@](C)(Oc1nc(-c3cnn(C)c3)cn3nccc13)C2` [Example 212, rac-1-((2s,4r)-2-methyl-2-((6-(1-methyl-1H-pyrazol-4-yl)pyrazolo[1,5-a]pyrazin-4-yl)oxy)-6-azaspiro[3.4]octan-6-yl)prop-2-en-1-one], the figures for the negative logarithm of the IC50 (pIC50) in test [1] and in test [2] (read-out: IC50) were 8.00 to 9.00 and 5.00 to 6.00, respectively.
Regarding `C=CC(=O)N1CCC[C@@H](Oc2nc(-c3cnn(C)c3)cn3ncc(C#N)c23)CC1` [Example 59, (R)-4-((1-acryloylazepan-4-yl)oxy)-6-(1-methyl-1H-pyrazol-4-yl)pyrazolo[1,5-a]pyrazine-3-carbonitrile], the pIC50 in test [1] was above 9.00; in test [2] (setting [3]), above 6.00.
`C=CC(=O)N1C[C@H]2C[C@@H](C1)[C@@H]2COc1cc(-c2cnn(C)c2)cn2ncc(F)c12` (single isomer, unassigned) [Example 85, 1-((1R,5S,6r) or (1R,5S,6s)-6-(((3-fluoro-6-(1-methyl-1H-pyrazol-4-yl)pyrazolo[1,5-a]pyridin-4-yl)oxy)methyl)-3-azabicyclo[3.1.1]heptan-3-yl)prop-2-en-1-one]: the results for the negative logarithm of the IC50 (pIC50) in test [1] and in test [2] (read-out: IC50) were above 9.00 and above 6.00, respectively.
In the same order, the values of `C=CC(=O)N1C[C@H]2C[C@@H](C1)[C@@H]2COc1nc(-c2cnn(C)c2)cn2nccc12` [Example 127, 1-((1R,5S,6r)-6-(((6-(1-methyl-1H-pyrazol-4-yl)pyrazolo[1,5-a]pyrazin-4-yl)oxy)methyl)-3-azabicyclo[3.1.1]heptan-3-yl)prop-2-en-1-one] are above 9.00 and 5.00 to 6.00.
Regarding `Cn1cc(-c2cn3nccc3c(O[C@]3(C)C[C@H](NC(=O)/C=C/C(F)(F)F)C3)n2)cn1` [Example 231, (E)-4,4,4-trifluoro-N-((1s,3s)-3-methyl-3-((6-(1-methyl-1H-pyrazol-4-yl)pyrazolo[1,5-a]pyrazin-4-yl)oxy)cyclobutyl)but-2-enamide], the pIC50 is above 9.00 in test [1] and above 6.00 in test [2] (setting [3]).
In the same order, the values of `C=CC(=O)N(C)[C@@H]1C[C@@H](Oc2nc(-c3cnn(C)c3)cn3nccc23)C1(C)C` [Example 220, N-((1R,3R)-2,2-dimethyl-3-((6-(1-methyl-1H-pyrazol-4-yl)pyrazolo[1,5-a]pyrazin-4-yl)oxy)cyclobutyl)-N-methylacrylamide] are 8.00 to 9.00 and 5.00 to 6.00.
Turning to `C#CC(=O)N1CC[C@@H](Oc2nc(-c3cnn(C)c3)cc3nccn23)C1` [Example 39, (R)-1-(3-((7-(1-methyl-1H-pyrazol-4-yl)imidazo[1,2-c]pyrimidin-5-yl)oxy)pyrrolidin-1-yl)prop-2-yn-1-one], the negative-log IC50 (pIC50) in test [1] is 6.00 to 8.00; in test [2] (setting [3]), 5.00 to 6.00.
With `CC#CC(=O)N(C)[C@H]1CCC[C@@H](Oc2nc(-c3cnn(C)c3)cn3ncc(F)c23)C1` [Example 92, N-((1S,3R)-3-((3-fluoro-6-(1-methyl-H-pyrazol-4-yl)pyrazolo[1,5-a]pyrazin-4-yl)oxy)cyclohexyl)-N-methylbut-2-ynamide], the pIC50 was above 9.00 in test [1] and 5.00 to 6.00 in test [2] (setting [3]).
On the same counts, the results for `C=CC(=O)N1CC2CC(C1)C2COc1nc(-c2cnn(C)c2)cn2nccc12` (stereo not shown) [Example 126, 1-(6-(((6-(1-methyl-1H-pyrazol-4-yl)pyrazolo[1,5-a]pyrazin-4-yl)oxy)methyl)-3-azabicyclo[3.1.1]heptan-3-yl)prop-2-en-1-one] are above 9.00 and above 6.00.
`C=CC(=O)N1CCC[C@@H](Oc2nc(-c3cnn(C)c3)cc3nccn23)CC1` (single isomer, unassigned) [Example 34, (S) or (R)-1-(4-((7-(1-methyl-1H-pyrazol-4-yl)imidazo[1,2-c]pyrimidin-5-yl)oxy)azepan-1-yl)prop-2-en-1-one]: the figures for the negative logarithm of the IC50 (pIC50) in test [1] and in test [2] (setting [3]) were 8.00 to 9.00 and above 6.00, respectively.
On the same counts, the results for `C=CC(=O)N1CCCC[C@@H](Oc2nc(-c3cnn(C)c3)cn3nccc23)C1` [Example 56, 1-[(3R)-3-[6-(1-methylpyrazol-4-yl)pyrazolo[1,5-a]pyrazin-4-yl]oxyazepan-1-yl]prop-2-en-1-one] are 8.00 to 9.00 and below 5.00.
In the same order, the values of `C#CC(=O)N1CCC[C@@H](Oc2nc(-c3cnn(C)c3)cn3nccc23)CC1` [Example 30, (R)-1-(4-((6-(1-methyl-1H-pyrazol-4-yl)pyrazolo[1,5-a]pyrazin-4-yl)oxy)azepan-1-yl)prop-2-yn-1-one] are above 9.00 and above 6.00.
On the same counts, the results for `C=CC(=O)N(C)[C@H]1CC[C@@H]1COc1nc(-c2cnn(C)c2)cn2nccc12` (relative stereo) [Example 129, trans-N-methyl-N-(2-(((6-(1-methyl-1H-pyrazol-4-yl)pyrazolo[1,5-a]pyrazin-4-yl)oxy)methyl)cyclobutyl)acrylamide] are 6.00 to 8.00 and 5.00 to 6.00.
`CC#CC(=O)N(C)C12COCC(Oc3nc(-c4cnn(C)c4)cn4nccc34)(C1)C2` [Example 100, N-methyl-N-(5-((6-(1-methyl-1H-pyrazol-4-yl)pyrazolo[1,5-a]pyrazin-4-yl)oxy)-3-oxabicyclo[3.1.1]heptan-1-yl)but-2-ynamide]: the values for the pIC50 in test [1] and in test [2] (setting [3]) were above 9.00 and above 6.00, respectively.
In the same order, the values of `Cn1cc(-c2cn3nccc3c(O[C@]3(C)C[C@H](N(C)C(=O)/C=C/C(F)(F)F)C3)n2)cn1` [Example 232, (E)-4,4,4-trifluoro-N-methyl-N-((1s,3s)-3-methyl-3-((6-(1-methyl-1H-pyrazol-4-yl)pyrazolo[1,5-a]pyrazin-4-yl)oxy)cyclobutyl)but-2-enamide] are above 9.00 and above 6.00.
